Read-outs that look alike come from different tables or passages of the source. Starred links: 1 amine or outer side, 2 acyl side, 3 side chain; linkers in the order of their positions; H or OH if unused. Positions of bridges follow the written chain, without caps; N, C: chain ends. Non-standard residues stand in square brackets, D forms with d. Residues, ends and D or L forms follow the SMILES beside them. *: point of attachment. X13 = O=C(O)c1ccc(-n2cc(C[C@H](N[*:1])C(=O)[*:2])c3ccccc32)cc1; X16 = O=C([C@H](Cc1c[nH]c2c(-c3cccc(Cl)c3)cccc12)N[*:1])[*:2]; X6 = CS(=O)(=O)c1ccc(-c2ccc(C[C@H](N[*:1])C(=O)[*:2])cc2)cc1; X8 = COc1ccc(-n2cc(C[C@H](N[*:1])C(=O)[*:2])c3ccccc32)cc1; X3 = O=C(O)COc1ccccc1-c1ccc(C[C@H](N[*:1])C(=O)[*:2])cc1; Phe(3-OCH2COOH) = N[C@@H](Cc1cccc(OCC(=O)O)c1)C(=O)O; Trp(1-Ph) = N[C@@H](Cc1cn(-c2ccccc2)c2ccccc12)C(=O)O; NMePhe(4-CH2NH2) = CN[C@@H](Cc1ccc(CN)cc1)C(=O)O; Trp(6-OH) = N[C@@H](Cc1c[nH]c2cc(O)ccc12)C(=O)O; Phe(4-COOH) = N[C@@H](Cc1ccc(C(=O)O)cc1)C(=O)O; Gly(decyl) = CCCCCCCCCC[C@H](N)C(=O)O; Gly(N(CH2)3COOH) = O=C(O)CCCNCC(=O)O; Gly(octyl) = CCCCCCCC[C@H](N)C(=O)O; X1 = CCCCCCC[C@H](N[*:1])C(=O)[*:2]; Gly(N-(CH2)3OMe) = COCCCNCC(=O)O; NMeF = CN[C@@H](Cc1ccccc1)C(=O)O; NMeE = CN[C@@H](CCC(=O)O)C(=O)O; NMeA = CN[C@@H](C)C(=O)O; X9 = NC(=O)CC1CCN(*)CC1; Sar = CNCC(=O)O
Legend:
Myostatin = target: T1, Myostatin (Homo sapiens, UniProt O14793); assay: HepG2 reporter gene assay, Evaluation Procedure (2): 2-concentrations assay, myostatin inhibition; assay type: cell-based
T1 construct: active myostatin (also called mature myostatin) is a homodimer consisting of two C-terminal growth factor domains; purchased R&D systems 788-G8/CF
T1 sequence (O14793 267-375): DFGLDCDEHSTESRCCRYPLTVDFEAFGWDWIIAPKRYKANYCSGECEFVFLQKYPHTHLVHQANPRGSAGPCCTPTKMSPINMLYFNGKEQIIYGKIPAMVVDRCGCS
Outline: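 HepG2 cells (HB-8065, ATCC) carrying the transfected pGL3(CAGA)12-luc reporter plasmid were treated with myostatin (788-G8/CF, R&D systems) at a final concentration of 10 ng/mL plus peptide and incubated at 37°C, 5% CO2 for 20 to 24 hours. Luminescence was read after adding PBS mixed 1:1 with One-Glo substrate, and inhibition rate was calculated.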

GDF-11 = target: T2, GDF-11 (Homo sapiens, UniProt O95390); assay: HepG2 reporter gene assay, Evaluation Procedure (2): 2-concentrations assay, GDF-11 inhibition; assay type: cell-based
T2 construct: purchased R&D systems 1958-GD-G8/CF
T2 sequence (O95390 299-407): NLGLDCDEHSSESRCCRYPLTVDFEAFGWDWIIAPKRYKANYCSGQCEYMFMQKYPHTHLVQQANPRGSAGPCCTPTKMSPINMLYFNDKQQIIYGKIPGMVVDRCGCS
Outline: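 HepG2 cells carrying the transfected pGL3(CAGA)12-luc reporter, a pGL3 vector with luciferase placed downstream of 12 CAGA repeats, were stimulated with GDF-11 at a final 10 ng/mL together with test peptide. Blank wells received no GDF-11 and no peptide. Plates were incubated 20 to 24 hours at 37°C with 5% CO2. Luminescence from One-Glo substrate was read to calculate percent inhibition.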

[1] = Table 7-3/7-4, myostatin 10 ng/mL, peptide at the higher of the 2 concentrations, HepG2, read-out: inhibition rate (myostatin inhibition assay)
[2] = Table 7-3/7-4, myostatin 10 ng/mL, peptide at the lower of the 2 concentrations, HepG2, read-out: inhibition rate (myostatin inhibition assay)
[3] = HepG2, first GDF-11 column of Table 7-3/7-4, GDF-11 10 ng/mL, peptide at the lower of the 2 concentrations, read-out: inhibition rate (GDF-11 inhibition assay)
[4] = HepG2, second GDF-11 column of Table 7-3/7-4, GDF-11 10 ng/mL, peptide at the higher of the 2 concentrations, read-out: inhibition rate (GDF-11 inhibition assay)
[5] = HepG2, read-out: inhibition rate (myostatin inhibition assay)
[6] = HepG2, read-out: inhibition rate (GDF-11 inhibition assay), Table 7-3/7-4, GDF-11 10 ng/mL, peptide at the higher of the 2 concentrations
[7] = HepG2, read-out: inhibition rate (GDF-11 inhibition assay), Table 7-3/7-4, GDF-11 10 ng/mL, peptide at the lower of the 2 concentrations

Row | Structure (SMILES) | inhibition at 0.1 µM (Myostatin; [1]) [%] | inhibition at 0.03 µM (Myostatin; [2]) [%] | inhibition (GDF-11; [3]) [%] | inhibition (GDF-11; [4]) [%] | inhibition at 0.03 µM (Myostatin; [5]) [%] | inhibition at 0.1 µM (Myostatin; [5]) [%] | inhibition (GDF-11; [6]) [%] | inhibition (GDF-11; [7]) [%]
1 | CCCCCCCCCC[C@@H]1NC(=O)[C@H](Cc2ccccc2)N(C)C(=O)[C@H](CCCNC(=N)N)NC(=O)[C@H](Cc2ccc(C(=O)O)cc2)NC(=O)[C@H](Cc2cccc(OCC(=O)O)c2)NC(=O)[C@H]2CCCN2C(=O)[C@H]([C@@H](C)CC)NC(=O)[C@H](Cc2ccccc2)N(C)C(=O)[C@H](Cc2ccc(O)cc2)NC(=O)[C@H](Cc2c[nH]c3ccccc23)NC(=O)[C@H](C)NC(=O)[C@H](C)NC(=O)CSC[C@H](C(=O)N2CCC(CC(N)=O)CC2)NC(=O)[C@H](Cc2ccccc2)N(C)C(=O)[C@H](CCC(=O)O)N(C)C1=O [Myostatin_99_v347] ({CH2CO}-AAWY[NMeF]I[dP][Phe(3-OCH2COOH)][Phe(4-COOH)]R[NMeF][Gly(decyl)][NMeE][NMeF][dC]-X9; thioether N-15) | 100 | 100 | 0 | 8 | – | – | – | –
2 | CCCCCCC[C@@H]1NC(=O)[C@H](Cc2ccccc2)N(C)C(=O)[C@H](CCCNC(=N)N)NC(=O)[C@H](Cc2ccc(C(=O)O)cc2)NC(=O)[C@H](Cc2cccc(OCC(=O)O)c2)NC(=O)[C@H](C)N(C)C(=O)[C@H]([C@@H](C)CC)NC(=O)[C@H](Cc2ccccc2)N(C)C(=O)[C@H](Cc2ccc(O)cc2)NC(=O)[C@H](Cc2ccc(-c3ccc(S(C)(=O)=O)cc3)cc2)NC(=O)[C@H](C)NC(=O)CN(CCCC(=O)O)C(=O)CSC[C@H](C(=O)O)NC(=O)[C@H](Cc2ccccc2)N(C)C(=O)[C@H](C)N(C)C1=O [Myostatin_99_v370] ({CH2CO}-[Gly(N(CH2)3COOH)]A[X6]Y[NMeF]I[NMeA][Phe(3-OCH2COOH)][Phe(4-COOH)]R[NMeF][X1][NMeA][NMeF][dC]-OH; thioether N-15) | – | – | – | – | 100 | 100 | 0 | 0
3 | CCCCCCC[C@@H]1NC(=O)[C@H](Cc2ccccc2)N(C)C(=O)[C@H](CCCNC(=N)N)NC(=O)[C@H](Cc2ccc(C(=O)O)cc2)NC(=O)[C@H](Cc2ccc(-c3ccccc3OCC(=O)O)cc2)NC(=O)[C@H](C)N(C)C(=O)[C@H]([C@@H](C)CC)NC(=O)[C@H](Cc2ccccc2)N(C)C(=O)[C@H](Cc2ccc(O)cc2)NC(=O)[C@H](Cc2c[nH]c3ccccc23)NC(=O)[C@H](C)NC(=O)CN(CCCC(=O)O)C(=O)CSC[C@H](C(=O)O)NC(=O)[C@H](Cc2ccccc2)N(C)C(=O)[C@H](C)N(C)C1=O [Myostatin_99_v371] ({CH2CO}-[Gly(N(CH2)3COOH)]AWY[NMeF]I[NMeA][X3][Phe(4-COOH)]R[NMeF][X1][NMeA][NMeF][dC]-OH; thioether N-15) | – | – | – | – | 100 | 100 | 0 | 0
4 | CCCCCCC[C@@H]1NC(=O)[C@H](Cc2ccccc2)N(C)C(=O)[C@H](CCCNC(=N)N)NC(=O)[C@H](Cc2ccc(C(=O)O)cc2)NC(=O)[C@H](Cc2ccc(-c3ccccc3OCC(=O)O)cc2)NC(=O)[C@H](C)N(C)C(=O)[C@H]([C@@H](C)CC)NC(=O)[C@H](Cc2ccccc2)N(C)C(=O)[C@H](Cc2ccc(O)cc2)NC(=O)[C@H](Cc2c[nH]c3cc(O)ccc23)NC(=O)[C@H](C)NC(=O)CN(CCCC(=O)O)C(=O)CSC[C@H](C(=O)O)NC(=O)[C@H](Cc2ccccc2)N(C)C(=O)[C@H](C)N(C)C1=O [Myostatin_99_v373] ({CH2CO}-[Gly(N(CH2)3COOH)]A[Trp(6-OH)]Y[NMeF]I[NMeA][X3][Phe(4-COOH)]R[NMeF][X1][NMeA][NMeF][dC]-OH; thioether N-15) | – | – | – | – | 100 | 100 | 47 | 0
5 | CCCCCCC[C@@H]1NC(=O)[C@H](Cc2ccccc2)N(C)C(=O)[C@H](CCCNC(=N)N)NC(=O)[C@H](Cc2ccc(C(=O)O)cc2)NC(=O)[C@H](Cc2cccc(OCC(=O)O)c2)NC(=O)[C@H](C)N(C)C(=O)[C@H]([C@@H](C)CC)NC(=O)[C@H](Cc2ccccc2)N(C)C(=O)[C@H](Cc2ccc(O)cc2)NC(=O)[C@H](Cc2c[nH]c3c(-c4cccc(Cl)c4)cccc23)NC(=O)[C@H](C)NC(=O)CN(CCCC(=O)O)C(=O)CSC[C@H](C(=O)O)NC(=O)[C@H](Cc2ccccc2)N(C)C(=O)[C@H](C)N(C)C1=O [Myostatin_99_v378] ({CH2CO}-[Gly(N(CH2)3COOH)]A[X16]Y[NMeF]I[NMeA][Phe(3-OCH2COOH)][Phe(4-COOH)]R[NMeF][X1][NMeA][NMeF][dC]-OH; thioether N-15) | 100 | 99 | 0 | 0 | – | – | – | –
6 | CCCCCCC[C@@H]1NC(=O)[C@H](Cc2ccccc2)N(C)C(=O)[C@H](CCCNC(=N)N)NC(=O)[C@H](Cc2ccc(C(=O)O)cc2)NC(=O)[C@H](Cc2cccc(OCC(=O)O)c2)NC(=O)[C@H](C)N(C)C(=O)[C@H]([C@@H](C)CC)NC(=O)[C@H](Cc2ccccc2)N(C)C(=O)[C@H](Cc2ccc(O)cc2)NC(=O)[C@H](Cc2cn(-c3ccc(OC)cc3)c3ccccc23)NC(=O)[C@H](C)NC(=O)CN(CCCC(=O)O)C(=O)CSC[C@H](C(=O)O)NC(=O)[C@H](Cc2ccccc2)N(C)C(=O)[C@H](C)N(C)C1=O [Myostatin_99_v379] ({CH2CO}-[Gly(N(CH2)3COOH)]A[X8]Y[NMeF]I[NMeA][Phe(3-OCH2COOH)][Phe(4-COOH)]R[NMeF][X1][NMeA][NMeF][dC]-OH; thioether N-15) | 100 | 100 | 0 | 0 | – | – | – | –
7 | CCCCCCC[C@@H]1NC(=O)[C@H](Cc2ccccc2)N(C)C(=O)[C@H](CCCNC(=N)N)NC(=O)[C@H](Cc2ccc(C(=O)O)cc2)NC(=O)[C@H](Cc2cccc(OCC(=O)O)c2)NC(=O)[C@H](C)N(C)C(=O)[C@H]([C@@H](C)CC)NC(=O)[C@H](Cc2ccccc2)N(C)C(=O)[C@H](Cc2ccc(O)cc2)NC(=O)[C@H](Cc2cn(-c3ccccc3)c3ccccc23)NC(=O)[C@H](C)NC(=O)CN(CCCC(=O)O)C(=O)CSC[C@H](C(=O)O)NC(=O)[C@H](Cc2ccccc2)N(C)C(=O)[C@H](C)N(C)C1=O [Myostatin_99_v380] ({CH2CO}-[Gly(N(CH2)3COOH)]A[Trp(1-Ph)]Y[NMeF]I[NMeA][Phe(3-OCH2COOH)][Phe(4-COOH)]R[NMeF][X1][NMeA][NMeF][dC]-OH; thioether N-15) | 100 | 100 | 0 | 0 | – | – | – | –
8 | CCCCCCCC[C@@H]1NC(=O)[C@H](Cc2ccccc2)N(C)C(=O)[C@H](CCCNC(=N)N)NC(=O)[C@H](Cc2ccc(C(=O)O)cc2)NC(=O)[C@H](Cc2cccc(OCC(=O)O)c2)NC(=O)CN(C)C(=O)[C@H]([C@@H](C)CC)NC(=O)[C@H](Cc2ccccc2)N(C)C(=O)[C@H](Cc2ccc(O)cc2)NC(=O)[C@H](Cc2c[nH]c3cc(O)ccc23)NC(=O)[C@H](C)NC(=O)CN(CCCOC)C(=O)CSC[C@H](C(N)=O)NC(=O)[C@H](Cc2ccccc2)N(C)C(=O)[C@H](C)N(C)C1=O [Myostatin_99_v414] ({CH2CO}-[Gly(N-(CH2)3OMe)]A[Trp(6-OH)]Y[NMeF]I[Sar][Phe(3-OCH2COOH)][Phe(4-COOH)]R[NMeF][Gly(octyl)][NMeA][NMeF][dC]-NH2; thioether N-15) | 100 | 100 | 0 | 44 | – | – | – | –
9 | CCCCCCC[C@@H]1NC(=O)[C@@H]2Cc3ccc(cc3)CNC(=O)CC[C@@H](C(=O)N[C@@H](C)C(=O)N[C@@H](Cc3cn(-c4ccc(C(=O)O)cc4)c4ccccc34)C(=O)N[C@@H](Cc3ccc(O)cc3)C(=O)N(C)[C@@H](Cc3ccccc3)C(=O)N[C@@H]([C@@H](C)CC)C(=O)N3CCC[C@@H]3C(=O)N[C@@H](Cc3cccc(OCC(=O)O)c3)C(=O)N[C@@H](Cc3ccc(C(=O)O)cc3)C(=O)N[C@@H](CCCNC(=N)N)C(=O)N2C)N(C)C(=O)CSC[C@H](C(=O)O)NC(=O)[C@H](Cc2ccccc2)N(C)C(=O)[C@H](C)N(C)C1=O [Myostatin_99_v423] ({CH2CO}-[NMeE]A[X13]Y[NMeF]I[dP][Phe(3-OCH2COOH)][Phe(4-COOH)]R[NMePhe(4-CH2NH2)][X1][NMeA][NMeF][dC]-OH; lactam 1-11; thioether N-15) | 100 | 100 | 0 | 0 | – | – | – | –
